Data published in patent US20220289708A1, “SUBSTITUTED N-PHENYL URACILS, SALTS THEREOF AND THEIR USE AS HERBICIDAL AGENTS” (Bayer Aktiengesellschaft, priority 2019, published 2022).

What was measured:
Type in all cases: in vivo
[1] = test system: Oryza sativa; assay: Post-emergence crop plant compatibility; conditions: application rate 5 g/ha
Procedure, shortened: (§1)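 Greenhouse crop plants in sandy loam sprayed at one-leaf stage (2-3 weeks after sowing) with WP or EC formulations plus 0.5% additive, 600 l/ha water, at 5 g/ha or 20 g/ha. Damage scored visually after about 3 weeks as % versus untreated controls (100% = plants dead).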

[2] = test system: Triticum aestivum; assay: Post-emergence crop plant compatibility; conditions: application rate 5 g/ha
Procedure, shortened: as §1

[3] = test system: Zea mays; assay: Pre-emergence crop plant compatibility; conditions: application rate 20 g/ha
Description: (§2) B. Pre-Emergence Herbicidal Action and Crop Plant Compatibility
(§3) Seeds of monocotyledonous and dicotyledonous weed plants and crop plants were placed in plastic or organic planting pots and covered with soil. The compounds of the invention, formulated in the form of wettable powders (WP) or as emulsion concentrates (EC), were then applied to the surface of the covering soil as aqueous suspension or emulsion with addition of 0.5% additive at a water application rate equivalent to 600 l/ha (converted). After the treatment, the pots were placed in a greenhouse and kept under good growth conditions for the test plants. After about 3 weeks, the effect of the preparations was scored visually in comparison with untreated controls as percentages. For example, 100% activity=the plants have died, 0% activity=like control plants.
(§4) Tables B14 to B16 below show the crop plant compatibilities of selected compounds of the general formula (I) according to Tables I.1 to I.36 at an application rate corresponding to 20 g/ha, which were obtained in experiments according to the experimental procedure mentioned above. Here, the observed effects on selected crop plants are stated in comparison to the untreated controls (values in %).

[4] = test system: Triticum aestivum; assay: Pre-emergence crop plant compatibility; conditions: application rate 20 g/ha
Description: as §2, §3, §4

[5] = test system: Veronica persica; assay: Post-emergence herbicidal action; conditions: application rate 5 g/ha
Procedure, shortened: (§5)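 Percent activity, judged by eye about 3 weeks after treatment relative to untreated plants, ranges from 0% (as control) to 100% (plants dead). Foliar application at 20 g/ha and less was made at the one-leaf stage using a 600 l/ha aqueous spray containing 0.5% additive.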

[6] = test system: Abutilon theophrasti; assay: Post-emergence herbicidal action; conditions: application rate 5 g/ha, rated visually after about 3 weeks vs untreated controls
Procedure, shortened: as §5

[7] = test system: Digitaria sanguinalis; assay: Post-emergence herbicidal action; conditions: rated visually after about 3 weeks vs untreated controls
Procedure, shortened: as §5

[8] = test system: Pharbitis purpurea; assay: Post-emergence herbicidal action; conditions: application rate 5 g/ha, rated visually after about 3 weeks vs untreated controls
Procedure, shortened: as §5

[9] = test system: Echinochloa crus-galli; assay: Post-emergence herbicidal action; conditions: application rate 5 g/ha, rated visually after about 3 weeks vs untreated controls
Procedure, shortened: as §5

[10] = test system: Amaranthus retroflexus; assay: Post-emergence herbicidal action; conditions: application rate 5 g/ha, rated visually after about 3 weeks vs untreated controls
Procedure, shortened: as §5

[11] = test system: Veronica persica; assay: Pre-emergence herbicidal action; conditions: application rate 20 g/ha
Procedure, shortened: (§6)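 Compounds formulated as WP or EC were sprayed onto the soil surface over freshly sown seeds as aqueous suspension/emulsion with 0.5% additive, at 600 l/ha water, at 80 g/ha or less. Greenhouse-grown plants were visually scored after about 3 weeks as % activity versus untreated controls (100% = plants dead).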

[12] = test system: Polygonum convolvulus; assay: Pre-emergence herbicidal action; conditions: application rate 20 g/ha
Procedure, shortened: as §6

[13] = test system: Alopecurus myosuroides; assay: Pre-emergence herbicidal action
Procedure, shortened: as §6

[14] = test system: Setaria viridis; assay: Pre-emergence herbicidal action; conditions: application rate 20 g/ha
Procedure, shortened: as §6

[15] = test system: Viola tricolor; assay: Pre-emergence herbicidal action; conditions: application rate 20 g/ha
Procedure, shortened: as §6

[16] = test system: Avena fatua; assay: Pre-emergence herbicidal action
Procedure, shortened: as §6

[17] = test system: Matricaria inodora; assay: Pre-emergence herbicidal action; conditions: application rate 20 g/ha
Procedure, shortened: as §6

[18] = test system: Abutilon theophrasti; assay: Pre-emergence herbicidal action; conditions: application rate 20 g/ha
Procedure, shortened: as §6

[19] = test system: Digitaria sanguinalis; assay: Pre-emergence herbicidal action; conditions: application rate 20 g/ha
Procedure, shortened: as §6

[20] = test system: Pharbitis purpurea; assay: Pre-emergence herbicidal action
Procedure, shortened: as §6

[21] = test system: Echinochloa crus-galli; assay: Pre-emergence herbicidal action
Procedure, shortened: as §6

[22] = test system: Amaranthus retroflexus; assay: Pre-emergence herbicidal action; conditions: application rate 20 g/ha
Procedure, shortened: as §6

[23] = test system: Lolium rigidum; assay: Pre-emergence herbicidal action; conditions: application rate 80 g/ha
Procedure, shortened: as §6

[24] = test system: Glycine max; assay: Pre-emergence crop plant compatibility; conditions: application rate 20 g/ha, observed effect on crop vs untreated controls after about 3 weeks
Description: as §2, §3, §4

[25] = test system: Polygonum convolvulus; assay: Post-emergence herbicidal action; conditions: application rate 5 g/ha
Procedure, shortened: as §5

[26] = test system: Alopecurus myosuroides; assay: Post-emergence herbicidal action; conditions: application rate 5 g/ha, rated visually after about 3 weeks vs untreated controls
Procedure, shortened: as §5

[27] = test system: Setaria viridis; assay: Post-emergence herbicidal action; conditions: application rate 5 g/ha, rated visually after about 3 weeks vs untreated controls
Procedure, shortened: as §5

[28] = test system: Viola tricolor; assay: Post-emergence herbicidal action; conditions: application rate 5 g/ha
Procedure, shortened: as §5

[29] = test system: Matricaria inodora; assay: Post-emergence herbicidal action; conditions: application rate 5 g/ha, rated visually after about 3 weeks vs untreated controls
Procedure, shortened: as §5

Oryza sativa (efficacy in %) [1] [%] | Triticum aestivum (efficacy in %) [2] [%] | Triticum aestivum (efficacy in %) [4] [%] | SMILES | Veronica persica (efficacy in %) [5] [%] | Abutilon theophrasti (efficacy in %) [6] [%] | Digitaria sanguinalis (efficacy in %) ([7]; application rate 5 g/ha) [%] | Pharbitis purpurea (efficacy in %) [8] [%] | Echinochloa crus-galli (efficacy in %) [9] [%] | Amaranthus retroflexus (efficacy in %) [10] [%] | Veronica persica (efficacy in %) [11] [%] | Polygonum convolvulus (efficacy in %) [12] [%] | Setaria viridis (efficacy in %) [14] [%] | Viola tricolor (efficacy in %) [15] [%] | Avena fatua (efficacy in %) ([16]; application rate 80 g/ha) [%] | Matricaria inodora (efficacy in %) [17] [%] | Abutilon theophrasti (efficacy in %) [18] [%] | Digitaria sanguinalis (efficacy in %) [19] [%] | Pharbitis purpurea (efficacy in %) ([20]; application rate 20 g/ha) [%] | Amaranthus retroflexus (efficacy in %) [22] [%] | Lolium rigidum (efficacy in %) [23] [%] | also measured
0 | 0 | 0 | Cn1c(C(F)(F)F)cc(=O)n(-c2cc(Oc3cccnc3OCC(=O)OCC[Si](C)(C)C)c(Cl)cc2F)c1=O [I.15-211] | 100 | 100 | 100 | 80 | 100 | 100 | 100 | 100 | 100 | 100 | 80 | 100 | 100 | 100 | 80 | 100 | 100 | Zea mays (efficacy in %) [3]: 20%; Alopecurus myosuroides (efficacy in %) ([13]; application rate 80 g/ha): 100%; Echinochloa crus-galli (efficacy in %) ([21]; application rate 20 g/ha): 80%
20 | 20 | 10 | Cn1c(C(F)(F)F)cc(=O)n(-c2cc(Oc3cccnc3OCC(=O)OCCOCc3ccccc3)c(Cl)cc2F)c1=O [I.15-6] | 100 | 100 | 100 | 100 | 100 | 100 | 100 | 100 | 100 | 100 | 100 | 100 | 100 | 100 | 100 | 100 | 100 | Zea mays (efficacy in %) [3]: 0%; Alopecurus myosuroides (efficacy in %) ([13]; application rate 20 g/ha): 90%; Echinochloa crus-galli (efficacy in %) ([21]; application rate 80 g/ha): 100%
0 | 0 | 10 | COCCOCCOCCOCCOC(=O)COc1ncccc1Oc1cc(-n2c(=O)cc(C(F)(F)F)n(C)c2=O)c(F)cc1Cl [I.15-154] | 100 | 100 |  | 100 |  | 100 | 100 | 100 | 100 | 100 | 100 | 100 | 100 | 100 |  | 100 | 100 | Zea mays (efficacy in %) [3]: 0%; Digitaria sanguinalis (efficacy in %) ([7]; application rate 20 g/ha): 100%; Alopecurus myosuroides (efficacy in %) ([13]; application rate 80 g/ha): 100%; Pharbitis purpurea (efficacy in %) ([20]; application rate 80 g/ha): 100%; Echinochloa crus-galli (efficacy in %) ([21]; application rate 80 g/ha): 100%

SMILES | Oryza sativa (efficacy in %) [1] [%] | Triticum aestivum (efficacy in %) [2] [%] | Triticum aestivum (efficacy in %) [4] [%] | Veronica persica (efficacy in %) [5] [%] | Abutilon theophrasti (efficacy in %) [6] [%] | Digitaria sanguinalis (efficacy in %) ([7]; application rate 5 g/ha) [%] | Pharbitis purpurea (efficacy in %) [8] [%] | Echinochloa crus-galli (efficacy in %) [9] [%] | Amaranthus retroflexus (efficacy in %) [10] [%] | Veronica persica (efficacy in %) [11] [%] | Polygonum convolvulus (efficacy in %) [12] [%] | Setaria viridis (efficacy in %) [14] [%] | Viola tricolor (efficacy in %) [15] [%] | Avena fatua (efficacy in %) ([16]; application rate 80 g/ha) [%] | Matricaria inodora (efficacy in %) [17] [%] | Abutilon theophrasti (efficacy in %) [18] [%] | Digitaria sanguinalis (efficacy in %) [19] [%] | Pharbitis purpurea (efficacy in %) ([20]; application rate 20 g/ha) [%] | Amaranthus retroflexus (efficacy in %) [22] [%] | Lolium rigidum (efficacy in %) [23] [%] | also measured
Cn1c(C(F)(F)F)cc(=O)n(-c2cc(Oc3cccnc3OCC(=O)OCC3NC(=O)NC3=O)c(Cl)cc2F)c1=O (stereo not drawn) [I.15-280] |  | 20 | 10 | 100 | 100 | 100 | 100 | 80 | 100 | 100 | 100 | 100 | 100 |  | 100 | 100 | 100 | 90 | 100 | 100 | Glycine max (efficacy in %) [24]: 0%; Polygonum convolvulus (efficacy in %) [25]: 100%; Alopecurus myosuroides (efficacy in %) [26]: 90%; Setaria viridis (efficacy in %) [27]: 100%; Viola tricolor (efficacy in %) [28]: 100%; Matricaria inodora (efficacy in %) [29]: 90%; Alopecurus myosuroides (efficacy in %) ([13]; application rate 20 g/ha): 90%; Avena fatua (efficacy in %) ([16]; application rate 20 g/ha): 80%; Echinochloa crus-galli (efficacy in %) ([21]; application rate 20 g/ha): 90%
Cn1c(C(F)(F)F)cc(=O)n(-c2cc(Oc3cccnc3OCC(=O)OCCOC(F)(F)F)c(Cl)cc2F)c1=O [I.15-41] | 20 | 20 |  | 100 | 100 | 100 | 100 | 100 | 100 | 100 | 100 | 100 | 100 | 90 | 100 | 100 | 100 | 100 | 100 | 100 | Glycine max (efficacy in %) [24]: 20%; Alopecurus myosuroides (efficacy in %) ([13]; application rate 80 g/ha): 100%; Echinochloa crus-galli (efficacy in %) ([21]; application rate 80 g/ha): 100%
